Measurements reported in PubChem BioAssay (NCI).
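Cells were grown in 96-well plates and exposed to each compound for 48 hours at five concentrations; endpoints were interpolated linearly between bracketing concentrations, or set to the highest concentration if not reached. Here, GI50 denotes the concentration required for 50% inhibition of growth. At the TGI there is no net growth.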

Key:
Test in all cases: NCI-60 cell line screen, 48 h
SK-MEL-28 melanoma = test system: SK-MEL-28 melanoma
SNB-75 CNS = test system: SNB-75 CNS
LOX IMVI melanoma = test system: LOX IMVI melanoma
K-562 leukemia = test system: K-562 leukemia
HL-60(TB) leukemia = test system: HL-60(TB) leukemia
HCT-116 colon = test system: HCT-116 colon
HOP-62 NSCLC = test system: HOP-62 NSCLC
TK-10 renal = test system: TK-10 renal
SW-620 colon = test system: SW-620 colon
UO-31 renal = test system: UO-31 renal
OVCAR-4 ovarian = test system: OVCAR-4 ovarian
HCC-2998 colon = test system: HCC-2998 colon
CCRF-CEM leukemia = test system: CCRF-CEM leukemia
MCF7 breast = test system: MCF7 breast
COLO 205 colon = test system: COLO 205 colon
HOP-92 NSCLC = test system: HOP-92 NSCLC
MDA-MB-468 breast = test system: MDA-MB-468 breast
HCT-15 colon = test system: HCT-15 colon
A498 renal = test system: A498 renal
MDA-MB-231 breast = test system: MDA-MB-231 breast
KM12 colon = test system: KM12 colon
UACC-62 melanoma = test system: UACC-62 melanoma
SR leukemia = test system: SR leukemia
SF-268 CNS = test system: SF-268 CNS
OVCAR-5 ovarian = test system: OVCAR-5 ovarian
MOLT-4 leukemia = test system: MOLT-4 leukemia
EKVX NSCLC = test system: EKVX NSCLC
786-0 renal = test system: 786-0 renal
NCI-H226 lung = test system: NCI-H226 lung
CAKI-1 renal = test system: CAKI-1 renal
NCI-H522 lung = test system: NCI-H522 lung
MALME-3M melanoma = test system: MALME-3M melanoma
SK-MEL-5 melanoma = test system: SK-MEL-5 melanoma
NCI-H460 lung = test system: NCI-H460 lung
PC-3 prostate = test system: PC-3 prostate
SF-295 CNS = test system: SF-295 CNS
SN12C renal = test system: SN12C renal
SNB-19 CNS = test system: SNB-19 CNS
A549 NSCLC = test system: A549 NSCLC
DU-145 prostate = test system: DU-145 prostate
OVCAR-8 ovarian = test system: OVCAR-8 ovarian
U251 CNS = test system: U251 CNS
SF-539 CNS = test system: SF-539 CNS
BT-549 breast = test system: BT-549 breast
OVCAR-3 ovarian = test system: OVCAR-3 ovarian
HS 578T breast = test system: HS 578T breast
UACC-257 melanoma = test system: UACC-257 melanoma
SK-MEL-2 melanoma = test system: SK-MEL-2 melanoma
NCI-H23 lung = test system: NCI-H23 lung
SK-OV-3 ovarian = test system: SK-OV-3 ovarian
M14 melanoma = test system: M14 melanoma
ACHN renal = test system: ACHN renal
RXF 393 renal = test system: RXF 393 renal
MDA-MB-435 = test system: MDA-MB-435
IGROV1 ovarian = test system: IGROV1 ovarian

## CC(C)(C)Nc1nc2cc(Cl)c(Cl)cc2nc1S(C)(=O)=O
SK-MEL-28 melanoma
  GI50: 1.79 µM
  TGI: 3.33 µM
SNB-75 CNS
  GI50: 8.16 µM
  TGI: 24.4 µM
LOX IMVI melanoma
  GI50: 1.35 µM
  TGI: 2.72 µM
K-562 leukemia
  GI50: 1.05 µM
  TGI: 3.21 µM
HL-60(TB) leukemia
  GI50: 4.03 µM
  TGI: 20.1 µM
HCT-116 colon
  GI50: 1.67 µM
  TGI: 3.44 µM
HOP-62 NSCLC
  GI50: 14.9 µM
  TGI: 29.2 µM
TK-10 renal
  GI50: 1.7 µM
  TGI: 3.19 µM
SW-620 colon
  GI50: 1.48 µM
  TGI: 2.96 µM
UO-31 renal
  GI50: 1.58 µM
  TGI: 2.95 µM
OVCAR-4 ovarian
  GI50: 2.96 µM
  TGI: 9.57 µM
HCC-2998 colon
  GI50: 8.7 µM
  TGI: 20.9 µM
CCRF-CEM leukemia
  GI50: 0.307 µM
  TGI: 3.77 µM
MCF7 breast
  GI50: 1.9 µM
  TGI: 4.23 µM
COLO 205 colon
  GI50: 1.7 µM
  TGI: 3.28 µM
HOP-92 NSCLC
  GI50: 2 µM
  TGI: 4.88 µM
MDA-MB-468 breast
  GI50: 1.64 µM
  TGI: 3.13 µM
HCT-15 colon
  GI50: 1.53 µM
  TGI: 3.03 µM
A498 renal
  GI50: 19.2 µM
  TGI: 33.5 µM
MDA-MB-231 breast
  GI50: 3.11 µM
  TGI: 8.94 µM
KM12 colon
  GI50: 7.82 µM
  TGI: 24.7 µM
UACC-62 melanoma
  GI50: 6.98 µM
  TGI: 19.8 µM
SR leukemia
  GI50: 0.504 µM
  TGI: 2.74 µM
SF-268 CNS
  GI50: 15.9 µM
  TGI: 36.4 µM
OVCAR-5 ovarian
  GI50: 14.6 µM
  TGI: 28.4 µM
MOLT-4 leukemia
  GI50: 0.411 µM
  TGI: 1.97 µM
EKVX NSCLC
  GI50: 13.3 µM
  TGI: 27 µM
786-0 renal
  GI50: 1.84 µM
  TGI: 3.47 µM
NCI-H226 lung
  GI50: 11.4 µM
  TGI: 41.7 µM
CAKI-1 renal
  GI50: 1.58 µM
  TGI: 3.01 µM
NCI-H522 lung
  GI50: 1.2 µM
  TGI: 2.63 µM
MALME-3M melanoma
  GI50: 1.64 µM
  TGI: 3.09 µM
SK-MEL-5 melanoma
  GI50: 2.18 µM
  TGI: 5.77 µM
NCI-H460 lung
  GI50: 8.46 µM
  TGI: 22.8 µM
PC-3 prostate
  GI50: 8.63 µM
  TGI: 24.6 µM
SF-295 CNS
  GI50: 14.6 µM
  TGI: 28.1 µM
SN12C renal
  GI50: 3.74 µM
  TGI: 14.4 µM
SNB-19 CNS
  GI50: 13.8 µM
  TGI: 26.9 µM
A549 NSCLC
  GI50: 13.5 µM
  TGI: 27.6 µM
DU-145 prostate
  GI50: 3.46 µM
  TGI: 12.1 µM
OVCAR-8 ovarian
  GI50: 3.95 µM
  TGI: 19.6 µM
U251 CNS
  GI50: 11.1 µM
  TGI: 24.5 µM
SF-539 CNS
  GI50: 6.38 µM
  TGI: 19.3 µM
BT-549 breast
  GI50: 1.74 µM
  TGI: 3.41 µM
OVCAR-3 ovarian
  GI50: 1.89 µM
  TGI: 3.52 µM
HS 578T breast
  GI50: 7.29 µM
  TGI: 35.2 µM
UACC-257 melanoma
  GI50: 1.99 µM
  TGI: 4.28 µM
SK-MEL-2 melanoma
  GI50: 4.14 µM
  TGI: 16.1 µM
NCI-H23 lung
  GI50: 2.09 µM
  TGI: 5.07 µM
SK-OV-3 ovarian
  GI50: 13.3 µM
  TGI: 26.4 µM
M14 melanoma
  GI50: 1.71 µM
  TGI: 3.43 µM
ACHN renal
  GI50: 1.75 µM
  TGI: 3.35 µM
RXF 393 renal
  GI50: 1.77 µM
  TGI: 3.64 µM
MDA-MB-435
  GI50: 1.88 µM
  TGI: 4.17 µM
IGROV1 ovarian
  GI50: 12.2 µM
  TGI: 25.6 µM
